Key:
[1] = tested on: mRNA expressed from the genes (A) to (D) in rat liver; experiment: Behavior of genes (mRNA expression level, oligo-DNA microarray) in rat liver after 28-day oral administration; type: in vivo
Method in brief: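 Oral gavage, once daily × 28 days; male F344 SPF rats, 5 wk, n=4/group; vehicle controls given equal solvent volume. Liver excised day 28, total RNA purified. Significance: ≥1.5× or ≤1/1.5 of vehicle, direction concordant with other carcinogens.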

liver = conditions: in vivo; cited from earlier work
rodent = conditions: in vivo; cited from earlier work

For `Nc1ccc(N=Nc2ccccc2)cc1` [TS075, 4-Aminoazobenzene], the “Behavior of gene caused by administration of chemical substance” value (shortened to “Behavior of gene caused”) ([1]; Gene No. 154, Rn.185941, group (C)) was “−”, the “Behavior of gene caused” value ([1]; Gene No. 533, Rn.106184, group (C)) was “−” and the “Behavior of gene caused” value ([1]; Gene No. 725, Rn.108075, group (C)) was “−”. For the same compound, the “Behavior of gene caused” value ([1]; Gene No. 813, Rn.201760, group (C)) was “−”, the “Behavior of gene caused” value ([1]; Gene No. 893, Rn.164817, group (C)) was “+” and the “Behavior of gene caused” value ([1]; Gene No. 1119, Rn.9757, group (C)) was “−”. The “Behavior of gene caused” value ([1]; Gene No. 1131, Rn.144946, group (C)) was “−”, the “Behavior of gene caused” value ([1]; Gene No. 1163, Rn.11766, group (C)) was “+” and the “Behavior of gene caused” value ([1]; Gene No. 1334, Rn.120914, group (C)) was “−”. For the same compound, the “Behavior of gene caused” value ([1]; Gene No. 1494, Rn.1430, group (B)) was “−”, the “Behavior of gene caused” value ([1]; Gene No. 1562, Rn.14744, group (C)) was “−” and the “Behavior of gene caused” value ([1]; Gene No. 1741, Rn.1647, group (C)) was “−”. The “Behavior of gene caused” value ([1]; Gene No. 1993, Rn.18728, group (C)) was “+”, the “Behavior of gene caused” value ([1]; Gene No. 2026, Rn.167075, group (A)) was “−” and the “Behavior of gene caused” value ([1]; Gene No. 2045, Rn.19329, group (B)) was “−”. For the same compound, the “Behavior of gene caused” value ([1]; Gene No. 2203, Rn.21240, group (B)) was “+”, the “Behavior of gene caused” value ([1]; Gene No. 2494, Rn.23969, group (C)) was “−” and the “Behavior of gene caused” value ([1]; Gene No. 2546, Rn.24561, group (C)) was “+”. The “Behavior of gene caused” value ([1]; Gene No. 3776, Rn.43232, group (C)) was “−”, the “Behavior of gene caused” value ([1]; Gene No. 3929, Rn.4620, group (C)) was “+” and the “Behavior of gene caused” value ([1]; Gene No. 4095, Rn.119024, group (C)) was “+”. The “Behavior of gene caused” value ([1]; Gene No. 4218, Rn.167075, group (A)) was “−”, the “Behavior of gene caused” value ([1]; Gene No. 4846, Rn.144554, group (A)) was “−” and the “Behavior of gene caused” value ([1]; Gene No. 4973, Rn.118529, group (C)) was “+”. For the same compound, the “Behavior of gene caused” value ([1]; Gene No. 5600, Rn.9836, group (A)) was “−”, the “Behavior of gene caused” value ([1]; Gene No. 5634, Rn.9862, group (C)) was “−” and the “Behavior of gene caused” value ([1]; Gene No. 5726, Rn.9939, group (D)) was “−”. For the same compound, the “Behavior of gene caused” value ([1]; Gene No. 5878, Rn.143213, group (C)) was “−”, the “Behavior of gene caused” value ([1]; Gene No. 6026, Rn.167685, group (C)) was “−” and the “Behavior of gene caused” value ([1]; Gene No. 6182, Rn.5834, group (A)) was “−”. For the same compound, the “Behavior of gene caused” value ([1]; Gene No. 6303, Rn.123063, group (C)) was “−”, the “Behavior of gene caused” value ([1]; Gene No. 6620, Rn.120914, group (C)) was “−” and the “Behavior of gene caused” value ([1]; Gene No. 6742, Rn.9779, group (C)) was “−”. For the same compound, the Liver carcinogenicity (liver) was “Cr+” and the Carcinogenicity (rodent) was “C+”.
